Here are results for 86 compounds from a melting point compilation (Tetko et al.; mined from patent text by program, amines drawn as free bases though some values may be those of a salt).

Usually melting point stands for the temperature, or range, at which the solid turns liquid. As for `CCCc1nc2c(N)nc3cc(OCCCNC(=O)C(C)C)ccc3c2n1CC(C)C`, the melting point lay in the range of 179 to 181 °C.

Regarding `c1ccc(-c2csc3ncnc(NCc4ccco4)c23)cc1`, the melting point was in the range of 77 to 79 °C.

In the case of `CC(C)(C)C(=O)c1c(CC(C)(C)C(=O)O)n(Cc2ccc(Cl)cc2)c2ccc(OCc3ccc4occc4n3)cc12`, the melting point amounted to 160 °C.

Regarding `O=CNC1=NN(c2ccccc2)CC1`, the melting point was 140 to 141 °C.

With `COC(=O)c1sc2c(c1O)CCC2`, the melting point lay within 73 to 75 °C.

Turning to `O=c1cc2c(nn1-c1ccc(Cl)cc1)-c1cc(Cl)ccc1SCC2`, the melting point lay within 215 to 217 °C.

On to `COc1cc(N2CCN(Cc3ccccc3)CC2)c2ncccc2c1Cl`, for which the melting point fell in the range of 138 to 140 °C.

In the case of `CC(C)(C)P(=O)(O)CCCN`, the melting point lay within 253 to 255 °C.

Regarding `C[C@@H](n1cnc2cc(N3CCN(c4ccc([N+](=O)[O-])cc4)CC3)ccc2c1=O)[C@](O)(Cn1cncn1)c1ccc(F)cc1F`, the melting point lay in the range of 287 to 289 °C.

`CC(C)(C)OC(=O)N[C@H](Cc1ccccc1)C(=O)N1CCC[C@H]1C(=O)NC1CCc2n[nH]cc2C1` (stereo partly specified) came in with a melting point of 108 to 110 °C.

The compound `C=CC[C@H](C(=O)NC)c1ccc(Cl)c(Cl)c1` gave a melting point of 104 to 105 °C.

In the case of `CC1(C)OC(=O)Nc2ccc(-c3cccc(Cl)c3)cc21`, the melting point fell in the range of 158 to 159 °C.

`CC(=O)N1CCc2c(c3ccc(-n4ccc(OCc5ccccc5)cc4=O)nc3n2C)C1` gave a melting point of 206 to 208 °C.

In turn, `CCOC1=C(CCCCCCC(=O)O)C(=O)CC1` returned a melting point of 65 to 66 °C.

Compound `COc1ccccc1NS(=O)(=O)c1ccc(COC2CCCCO2)cc1` (stereo unspecified) returned a melting point of 67 to 70 °C.

For `CNc1nccc(-c2cc(NCCCNc3ncnc4[nH]nc(Br)c34)c3cc(OC)ccc3c2)n1`, the melting point fell in the range of 145 to 148 °C.

The compound `COc1ccc(OC(CCCN2C3CCC2CNC3)c2ccc(C#N)cc2)cc1OC` (stereo unspecified) came in with a melting point of 38 to 43 °C.

Compound `COC(=O)c1ccc(OCC2CC(=O)N(c3ccc(O)cc3)C2)cc1` (stereo unspecified) returned a melting point of 141 to 144 °C.

`Cc1cc(=O)[nH]c(=O)n1Cc1ccccc1`: the melting point was 228 to 230 °C.

Consider `Cc1ccc2cc(NC(=O)c3cccc(CCc4cc(Nc5ccccc5)n[nH]4)c3)ccc2n1`, for which the melting point was 98 to 102 °C.

`COC1CCN(c2cc3c(cc2C#Cc2ccccc2)NC(=O)CC(c2cccc(C#N)c2)=N3)CC1` had a melting point of 250 to 251 °C.

`Cn1cc(Oc2ccccc2)c(=S)c(-c2cccc(C(F)(F)F)c2)c1` registered a melting point of 127 to 131 °C.

Take `O=CNCc1cccc(-c2ccc(Br)cc2)n1`: the melting point is 115 to 119 °C.

The compound `COc1ccc2cc(-c3cnc(-c4cn(Cc5ccccc5)c5ccccc45)o3)ccc2c1` returned a melting point of 198 to 199 °C.

`Nc1cnn(-c2cccc(C(F)(F)F)c2)c(=O)c1-c1cccc(C(F)(F)F)c1` had a melting point of 68 to 70 °C.

In the case of `O=C(c1cccnc1)c1cccc(NC(=O)c2ccn3c2CSC3c2cccnc2)c1` (stereo unspecified), the melting point is 160 °C.

For the compound `O=C(O)Cn1c(-c2cc(Br)co2)nc2cccnc21`, the melting point is 229 to 231 °C.

With `Cn1cccc1C(=O)Nc1ccc(-n2nc(C(F)(F)F)cc2C(F)(F)F)cc1`, the melting point fell in the range of 148 to 149 °C.

For the compound `COC(=O)c1ccccc1C(=O)c1ccc(-n2ccnc2)cc1`, the melting point lay within 134 to 136 °C.

`N#CC(CCN1CCC(C(=O)ON2C(=O)CCC2=O)(c2ccccc2)CC1)(c1ccccc1)c1ccccc1`: the melting point was in the range of 156 to 158 °C.

The compound `O=C(NCc1c(Cl)cccc1Oc1ccccc1)C1CCc2[nH]cnc2C1` (stereo unspecified) showed a melting point of 197 to 199 °C.

`CN(C)c1ccc(-c2cc(=O)c(C(=O)O)cn2-c2ccc(O)c(O)c2)cc1` showed a melting point of 223 to 227 °C.

Turning to `COc1ccc(N2CCN(c3c(C)c(C)c4c(c3C)C(=O)C(C)(C)O4)CC2)cc1OC`, the melting point lay in the range of 153 to 154 °C.

`CCN1CCN(C(C(=O)N(C)CCO)c2ccc(Nc3nc(-c4cccc(NC(=O)c5cc6c(s5)CCCCC6)c4C)cn(C)c3=O)cc2)CC1` (stereo unspecified) displayed a melting point of 163 to 165 °C.

`CC1(C)Oc2ccsc2C(NC(=O)c2cccnc2)C1O` (stereo unspecified): the melting point fell in the range of 248 to 249 °C.

As for `CCOC(=O)c1cc(OC(C)=O)c2cc(N3CCOCC3)ccc2c1`, the melting point was in the range of 135 to 137 °C.

Compound `CN(C)CC(=O)Nc1ccc(Cl)c(C(=O)Nc2cccc3c4c(oc23)CCCC4)c1Cl` had a melting point of 207 °C.

In the case of `O=CN(O)C(CS(=O)(=O)c1ccc(-c2ccc(C(F)(F)F)cc2)cc1)c1ccc(O)cc1` (stereo unspecified), the melting point is 225 °C.

For the compound `C=C(CN1c2ccccc2Sc2ccc(Cl)cc21)c1ccc(C(=O)Nc2ccccc2N)cc1`, the melting point lay in the range of 126 to 128 °C.

Compound `COCCOC(=O)C1=NNC(C)=C(C(=O)OC(C)C)C1c1cccc([N+](=O)[O-])c1` (stereo unspecified) came in with a melting point of 165 °C.

Take `COc1ccc(C(=O)c2c(N)sc3c2CCC3)c2ccccc12`: the melting point was in the range of 214 to 215 °C.

The compound `CC(=O)N1CCC(c2nn(-c3ccccc3)c3cc(F)ccc23)CC1` displayed a melting point of 126 to 128 °C.

Turning to `Cc1nc(-c2ccc(O)cc2)oc1C`, the melting point was 202 to 203 °C.

`COCc1nc(N)nc(N)c1-c1cc(Cl)cc(Cl)c1` returned a melting point of 228 to 230 °C.

For the compound `COCc1ccc(/C=C/c2c(OC)cc3c(c2OC)C(C)(C)CCC3(C)C)cc1`, the melting point fell in the range of 66 to 68 °C.

Turning to `CC(C)S(=O)(=O)c1ccc2c(c1)nc(CC1(C)CCCC1)n2CC1CC1`, the melting point was determined as 122 °C.

In turn, `O=S(=O)(Oc1ccc2c(OS(=O)(=O)c3ccc(O)cc3)c3cc(OS(=O)(=O)c4ccc(O)cc4)ccc3cc2c1)c1ccc(O)cc1` showed a melting point of 192 to 194 °C.

With `Clc1ccc(C(c2ccccc2)c2cn[nH]c2)c(Cl)c1` (stereo unspecified), the melting point was 131 °C.

`CCCCNC(=O)[C@H](C)C[C@H](O)[C@H](CC1CCCCC1)NC(=O)[C@H](Cc1cscn1)NC(=O)[C@@H](CC(=O)N1CCOCC1)Cc1ccc(OC)cc1`: the melting point was in the range of 130 to 132 °C.

Compound `COc1ccc(C=CC(=O)C2C(=O)CCC2=O)cc1O` showed a melting point of 61 to 62 °C.

In turn, `OC1OC(C2(c3ccccc3)CN2)N2CC12c1ccccc1` (stereo unspecified) displayed a melting point of 53 to 55 °C.

Turning to `CCOC(=O)c1cnc2c(c(C)nc3ccnn32)c1O`, the melting point lay in the range of 190 to 192 °C.

Compound `CC(=NN(C)c1ccc(C(F)(F)F)cc1)C(=O)NCc1ccc(Cl)cc1` showed a melting point of 112 to 113 °C.

As to `Clc1ccc(-c2cnccn2)c(Cl)c1`, the melting point was 131 to 132 °C.

In turn, `Cc1cc(S)n2nc(C(=O)NN)nc2n1` yielded a melting point of 221 to 222 °C.

On to `Cc1c2c(c(CCC=O)c(C(C)C)c1OCc1ccccc1)OC(C)(C)C2`, for which the melting point lay in the range of 88 to 89 °C.

Consider `O=C1NC(=O)C(=Cc2cc(O)c(O)c([N+](=O)[O-])c2)C(=O)N1`, for which the melting point lay in the range of 269 to 272 °C.

For `COc1cccc2c1C(=O)c1c(OC)cc(CBr)cc1C2=O`, the melting point lay within 176 to 178 °C.

For the compound `CCOC(=O)CCCCCCC(=O)Nc1ccc2c(c1)C(c1ccccc1)=N[C@@H](C)C(=O)N2C`, the melting point lay within 55 to 56 °C.

Turning to `CCC(CC)Nc1cc(COC(C)=O)c([N+](=O)[O-])cc1[N+](=O)[O-]`, the melting point fell in the range of 46 to 52 °C.

Regarding `CC(C)(C#N)c1cc(CO)cc(C(C)(C)C#N)c1`, the melting point lay in the range of 151 to 153 °C.

`COc1ccccc1NC(=O)c1ccc(CO)cc1` gave a melting point of 104 to 106 °C.

`Cc1nc(NC(=O)CC2CC2)sc1C(=O)NCc1ccccc1`: the melting point is 136 to 139 °C.

`O=C1NC(=O)C(Cc2ccc(O)c(C(=O)NCc3ccc(C(F)(F)F)cc3)c2)S1` (stereo unspecified): the melting point was 146 to 148 °C.

With `CC/C(=C\CCC(O)(CC)CC)c1ccc(COc2ccc(CO)c(CO)c2)s1`, the melting point came to 82 °C.

On to `CN1CCN(Cc2cc(C(=O)c3ccc(Cl)cc3)cc(C(C)(C)C)c2O)CC1`, for which the melting point was 131 to 132 °C.

For the compound `N=C(N)N(CCCC(C=O)NC(=O)C1CCCN1C(=O)COc1ccccc1)C(=O)OCc1ccccc1` (stereo unspecified), the melting point was 65 to 78 °C.

`COc1cc2c(cc1-c1cccc(F)n1)-c1c(-c3cncs3)c3c(n1CC2)C(=O)N(C(C)(C)C)CCOC3` had a melting point of 232 to 234 °C.

Turning to `C=Cc1c(NC(C)=O)cc(-c2ccc(Cl)c(OC)c2F)nc1C(=O)OC`, the melting point lay within 143 to 145 °C.

In turn, `CCCCCS(=O)(=O)NC(=O)c1ccc2sc(C)c(Cc3ccc(Cl)cc3Cl)c2c1` came in with a melting point of 158 to 159 °C.

For the compound `CC(C)c1nc(-c2ccccc2)c(F)c(-c2ccc(F)cc2)c1C=O`, the melting point lay within 136 to 137 °C.

`CCOC(=O)Cc1csc(N=C2SC[C@@H]3Cc4ccccc4CN23)n1` displayed a melting point of 105 °C.

For the compound `CS(=O)(=O)c1ccc(-c2cnn(Cc3ccsc3)c(=O)c2-c2ccc(F)cc2)cc1`, the melting point was 169 to 172 °C.

The compound `CNC(=O)CCn1cnc2c(N)nc3ccccc3c21` registered a melting point of over 260 °C.

`CCC(CCCNC(=O)Nc1cccnc1)NC(=O)Nc1cccnc1` (stereo unspecified) came in with a melting point of 218 to 219 °C.

The compound `CC(CCOS(C)(=O)=S)(C(=O)O)C(=O)O` (stereo unspecified) yielded a melting point of 109 to 111 °C.

In the case of `COc1ccc(Cl)c2c1CCCC2=O`, the melting point was in the range of 46 to 48 °C.

For the compound `CC1(C)CCC(C)(C)c2cc(C3NC(=O)NC3=O)ccc21` (stereo unspecified), the melting point was 213 to 214 °C.

The compound `COc1cccc(C(=O)Nc2ccc(N3CCN(Cc4cccc(C#N)c4)CC3)cc2)c1-c1ccc(C(C)C)cc1` had a melting point of 179 °C.

`CS(=O)(=O)c1ccc(-c2[nH]c(S)nc2-c2ccc(F)cc2)cc1` registered a melting point of 158 to 161 °C.

Consider `C#CCON=C(C(=O)O)c1nc(NC(=O)C(F)(F)F)sc1Cl`, for which the melting point fell in the range of 178 to 180 °C.

With `CCCC(=O)c1cnc2c(OCCOC)cccc2c1Nc1ccc(F)cc1C`, the melting point was 124 to 125 °C.

Turning to `Cn1ccc2ccc(-c3ccc(C(C)(C)C)cc3)cc21`, the melting point is 92 to 94 °C.

The compound `O=C(C(CCO)N1CCCC1=O)N1CCOCC1` (stereo unspecified) registered a melting point of 105 to 106 °C.

Consider `O=C1Cc2ccccc2Sc2c1ccc(Cl)c2Cl`, for which the melting point fell in the range of 133 to 135 °C.

Compound `COc1ccc(C(=O)c2cccc(OCc3nc(-c4ccccc4)oc3C)c2)c(O)c1` returned a melting point of 117 to 118 °C.
